Drawing on US9840532B2, “5′-substituted nucleoside compounds” (Eli Lilly and Company, priority 2015, dated 2017), this text covers IC50 for three compounds.

The target of this assay is T1, PRMT5/MEP50 complex (Homo sapiens, UniProt O14744).
T1 construct: FLAG; made in house; host or cells: baculovirus/Sf9 insect cells
T1 sequence (O14744 whole entry): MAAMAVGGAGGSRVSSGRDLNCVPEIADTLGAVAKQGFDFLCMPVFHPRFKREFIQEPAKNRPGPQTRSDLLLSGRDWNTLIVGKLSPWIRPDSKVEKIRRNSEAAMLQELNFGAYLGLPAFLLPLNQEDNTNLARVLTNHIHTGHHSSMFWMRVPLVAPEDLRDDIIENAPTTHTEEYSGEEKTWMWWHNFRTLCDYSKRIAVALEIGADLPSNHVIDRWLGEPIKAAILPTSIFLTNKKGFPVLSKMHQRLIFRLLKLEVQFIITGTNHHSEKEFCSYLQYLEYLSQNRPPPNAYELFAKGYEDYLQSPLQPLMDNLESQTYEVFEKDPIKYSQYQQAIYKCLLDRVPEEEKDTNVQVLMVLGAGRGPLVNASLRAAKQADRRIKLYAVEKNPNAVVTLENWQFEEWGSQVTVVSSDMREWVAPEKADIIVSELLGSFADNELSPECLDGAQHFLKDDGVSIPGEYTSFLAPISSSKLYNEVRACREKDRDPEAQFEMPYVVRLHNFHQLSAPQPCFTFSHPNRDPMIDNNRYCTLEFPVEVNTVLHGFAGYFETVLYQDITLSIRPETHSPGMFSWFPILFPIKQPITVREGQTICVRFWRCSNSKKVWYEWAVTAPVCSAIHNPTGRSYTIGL
T1 sequence (Q9BQA1 whole entry partner): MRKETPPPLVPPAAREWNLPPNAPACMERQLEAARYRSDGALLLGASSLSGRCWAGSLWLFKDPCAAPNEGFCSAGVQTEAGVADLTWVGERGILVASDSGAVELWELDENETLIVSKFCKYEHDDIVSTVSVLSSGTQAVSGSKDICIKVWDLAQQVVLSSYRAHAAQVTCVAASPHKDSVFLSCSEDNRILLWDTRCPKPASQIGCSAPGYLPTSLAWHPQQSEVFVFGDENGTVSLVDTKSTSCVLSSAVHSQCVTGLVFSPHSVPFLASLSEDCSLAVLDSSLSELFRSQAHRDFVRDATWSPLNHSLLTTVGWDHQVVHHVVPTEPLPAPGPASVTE
The assay is described as follows: PRMT5/MEP50 SPA Assay. The assay is classed as biochemical. Particulars: Mean ± SEM. An excerpt:
The purpose of this assay is to measure the ability of a test compound to inhibit the enzyme activity of PRMT5 in vitro by inhibiting the catalytic activity of PRMT5/MEP50 complex, indicated by the transfer of radiolabeled methyl-^3H to a substrate peptide derived from the N-terminal sequence of the human histone H4.
Express the PRMT5/MEP50 enzyme complex using a baculovirus/Sf9 system and purify using anti-FLAG affinity chromatography, (essentially as described in preparations by Stephen Antonysamy, Zahid Bonday, Robert M. Campbell, Brandon Doyle, Zhanna Druzina, Tarun Gheyi, Bomie Han, Louis N. Jungheim, Yuewei Qian, Charles Rauch, Marijane Russell, J. Michael Sauder, Stephen R. Wasserman, Kenneth Weichert, Francis S. Willard, Aiping Zhang, and Spencer Emtage; Crystal structure of the human PRMT5:MEP50 complex, Proceedings of the National Academy of Sciences, 2012, Volume 109, pages 17960-17965.) Dilute purified enzyme to a working stock of 6.67 nM in assay buffer (50 mM TRIZMA® preset pH ˜8.5, 1 mM DTT, 0.005% TWEEN® 80 0.01% HSA).
Add enzyme (15 μL/well) to a 384-well assay plate (CORNING® cat. #3706). Add test compounds from a 10 mM DMSO stock solution to the plate as serial dilutions in assay buffer to achieve a final test concentrations ranging from 50.0 μM to 25 nM. Create a reaction mix containing 1 μM Histone H4 biotinylated peptide substrate, H-[…]-biotin (SEQ ID NO: 1), prepared by FastMoc chemistry with an ABI 431 peptide, and 4 μM ^3H-SAM; 15 Ci/mmol, 0.366 mCi/mL, 37 μM, PERKIN-ELMER® cat. # NET155000MC) in assay buffer. To each plate well, add 5 μL of the peptide/^3H-SAM reaction mix to yield final assay conditions of 5 nM enzyme, 1 ^3H-SAM, 250 nM peptide and 50 μM maximum test compound concentration with 0.5% DMSO, at a final volume of 20 μL. Incubate the assay for 2 hr at room temperature. Stop the reaction with the addition of guanidine HCl (5 M, 20 μL, Sigma cat. # G3272).
Suspend strepavidin YSI SPA scintillation beads (PERKIN-ELMER®, #RPNQ0012) at 1 mg/mL in pH ˜8.5 Tris buffer containing 5 M guanidine HCl. To each well, add 20 μL of this bead suspension, agitate the resulting mixtures, and incubate for 1 hr at room temperature prior to measuring their radioactivity, using a microplate liquid scintillation counter as an indication of the formation of methylated peptide product.
Generate raw data from the radioactivity measurement as counts per min (CPM). Employ an uninhibited control (DMSO) and maximum inhibited control (250 μM dehydrosinefungin, (isolated essentially as described in Berry, D. R. & Abbott, B. J. Incorporation of carbon-14-labeled compounds into sinefungin (A9145), a nucleoside antifungal antibiotic. J. Antibiot. 1978 (31) 185-191 and references cited therein)). […]
By IC50 is commonly meant the midpoint of a concentration-inhibition curve. A high value points to lower potency. For the compound `Nc1ncnc2c1ccn2[C@@H]1O[C@H]([C@H](O)c2ccc(Cl)cc2)[C@@H](O)[C@H]1O` [Example 1, (2R,3R,4S,5R)-2-(4-Aminopyrrolo[2,3-d]pyrimidin-7-yl)-5-[(R)-(4-chlorophenyl)-hydroxy-methyl]tetrahydrofuran-3,4-diol], the IC50 stood at 4.27 nM.

In the case of `Nc1ncnc2c1ccn2[C@@H]1O[C@H]([C@H](O)c2ccccc2)[C@@H](O)[C@H]1O` [Example 2, (2R,3R,4S,5R)-2-(4-Aminopyrrolo[2,3-d]pyrimidin-7-yl)-5[(R)-hydroxy(phenyl)methyl]tetrahydrofuran-3,4-diol], inhibition was half-maximal at 9.51 nM (IC50).

In turn, `C[C@@](O)(c1ccc(Cl)cc1)[C@H]1O[C@@H](n2ccc3c(N)ncnc32)[C@H](O)[C@@H]1O` [Example 3, (2R,3R,4S,5S)-2-(4-Aminopyrrolo[2,3-d]pyrimidin-7-yl)-5-[(1R)-1-(4-chlorophenyl)-1-hydroxy-ethyl]tetrahydrofuran-3,4-diol] showed an IC50 of 5.23 nM.
